From paper PMC12734540, “Unraveling the Potential Antiviral Activity of Isoxazoline-Carbocyclic Monophosphate Nucleotides Against Echovirus 11” (Microorganisms, 2025)
Several values for one entry are separate records, joined by “and”; a condition that tells them apart may be missing. Identical values can stand only once.

Experiments:
Echovirus 11 [1] = test: Post-infection CPE inhibition assay (crystal violet); assay type: cell-based, Echovirus 11 lineage 1; settings: for reduction in E11 infection / E11-induced CPE / EC50: MOI 0.025, 48 h, VERO 76 cells; for EC50: post-infection CPE inhibition
Echovirus 11 [2] = test: E11 RNA quantification in supernatant by qRT-PCR (dose response); assay type: cell-based, Echovirus 11 lineage 1; settings: 48 h; for reduction in extracellular viral RNA: supernatant, MOI 0.025, relative to untreated infected controls
Protocol: (§1) Quantification of E11 genomic RNA was used as a hallmark of RNA virus replication within VERO 76-infected cells. The viral RNA was extracted from both cell culture supernatants and cell-associated fractions and quantified by one-step qRT-PCR using the automated Elite InGenius one-step RNA Enterovirus ELITe MGB® Kit, according to the manufacturer’s protocols. The experiment was performed in triplicate and RNA yield was reported as the mean value of a triplicate assay. To improve the accuracy of extracellular RNA quantification, particularly at 48 h post-infection (p.i.), a secondary analysis was performed using a two-step SYBR Green RT-qPCR. In particular, specific primers targeting the gene encoding the RNA-dependent RNA polymerase (RdRp) of E11 were designed using the Primer3 software (version 4.1.0). […]. Reverse transcription was carried out with a high-capacity cDNA synthesis kit, followed by quantitative PCR using SYBR Green Master Mix on a real-time PCR instrument. Data were analyzed using the ΔΔCt method, with normalization to the synthetic RNA spike-in.
The antiviral activity of nucleotides 4a and 4b against E11 replication was further evaluated by quantifying viral RNA in the supernatant of infected VERO 76 cells treated with increasing concentrations of each compound (6.25–50 μM for 4a; 6.25–100 μM for 4b). Following viral infection at a MOI of 0.025, cells were treated and incubated for 48 h. Viral genome copies were then assessed by qRT-PCR. Treatment with nucleotide 4a led to a dose-dependent reduction in extracellular viral RNA, with a 72% decrease observed at 25 μM and an 89% reduction at 50 μM relative to untreated infected controls.

Echovirus 11 [3] = test: Time-course analysis of E11 RNA (cell monolayer and supernatant) by qRT-PCR; assay type: cell-based, Echovirus 11 lineage 1; settings: 25 µM, MOI 0.025; for reduction in intracellular viral RNA levels: cell monolayer
Protocol: as §1
To evaluate the antiviral activity of compound 4a in VERO 76 cells over time, viral replication was assessed through quantification of viral genome copies via qRT-PCR in both the cell-associated and supernatant fractions, as well as by CPE analysis.
The amount of viral RNA measured in the intracellular and the supernatant fractions was compared against the control group, which consisted of VERO 76 cells that were infected but not subjected to 4a treatment. […] (Figure 5A). […] (Figure 5B).

Echovirus 11 [4] = test: Two-step SYBR Green RT-qPCR of RdRp gene RNA in supernatant; assay type: cell-based, Echovirus 11 lineage 1; settings: 25 µM, 48 h p.i., vs untreated controls, p = 0.0003
Protocol: as §1
To further corroborate and confirm the inhibitory effect of 4a on viral RNA release into the extracellular environment, an additional quantification was performed using a two-step SYBR Green-based RT-qPCR targeting the gene ecoding for the viral RdRp. […]

VERO 76 cells = settings: for cell viability: 25 µM
Protocol: After 48 h of incubation, 20 µL of MTS reagent were added directly to each well and the plates were incubated according to the manufacturer’s protocol. The conversion of MTS into a soluble formazan product by metabolically active cells was quantified by measuring the absorbance at 490 nm. For data analysis, the optical density (OD) of each well was first corrected by subtracting the background OD (medium + MTS without cells). The percentage of cell viability was then calculated by comparing the corrected OD of treated samples with the mean corrected OD of untreated control cells (0 µM), which was set as 100% viability:Cell viability (%) = (OD_treated − OD_blank)/(mean OD_control − OD_blank) × 100
Two independent experiments were performed, each in triplicate (n = 6 per condition). Dose–response curves were generated and CC50 values were determined by nonlinear regression using GraphPad Prism software v. 8.0 (San Diego, CA, USA).

SARS-CoV-2 RdRp = tested on: SARS-CoV-2 RdRp; design: method as in PMID 37810686; settings: cited from earlier work
Echovirus 11 [5] = test: Plaque assay of infectious titer; settings: 25 µM, supernatants collected at 48 h p.i., vs untreated control (CV)
Protocol: E11 infectious titers were determined by plaque assay. Briefly, 100 µL of culture supernatant from infected cells were serially diluted (10-1–10-4) in DMEM containing 1% FBS. VERO 76 cells were seeded in 24-well plates 24 h before infection to obtain 90% confluency. Cells were inoculated with 50 µl of each dilution and incubated for 1 h at 37 °C with gentle rocking. After adsorption, the inoculum was removed, and cells were overlaid with DMEM containing 1% FBS and carboxymethyl cellulose (CMC). Following 72 h incubation, monolayers were fixed, stained with crystal violet, and plaques were counted. Viral titers were expressed as plaque-forming units per milliliter (PFU/mL) according to:PFU/mL = (number of plaques)/(dilution factor × inoculated volume).

Echovirus 11 [6] = test: Infectivity of viral progeny (CPE on fresh cells); settings: 25 µM, supernatants collected 10, 24, 48 h p.i.
Protocol: To directly quantify this effect, a plaque assay was performed on supernatants collected at 48 h p.i.

Compound | reduction in E11 infection / E11-induced CPE (Echovirus 11 [1]; 25 µM, post-infection) | reduction in E11 infection / E11-induced CPE (Echovirus 11 [1]; 50 µM, post-infection) | EC50 (Echovirus 11 [1]) | reduction in extracellular viral RNA (Echovirus 11 [2]; 25 µM) | reduction in extracellular viral RNA (Echovirus 11 [2]; 50 µM) | reduction in intracellular viral RNA levels (Echovirus 11 [3]; 10 h p.i.) | reduction in intracellular viral RNA levels (Echovirus 11 [3]; 24 h p.i.) | drop in viral RNA levels in supernatant (Echovirus 11 [3]; 24 h p.i.) | drop in viral RNA levels in supernatant (Echovirus 11 [3]; 48 h p.i.) | RdRp RNA levels in the supernatant (Echovirus 11 [4]) | cell viability (VERO 76 cells) | anti-SARS-CoV-2 RdRp activity (SARS-CoV-2 RdRp) | decrease of infectious viral titer (PFU/mL) (Echovirus 11 [5]) | CPE in fresh VERO 76 cells exposed to supernatants of treated cultures (Echovirus 11 [6]) | effect on viral RNA levels in supernatant (Echovirus 11 [2]; 6.25–100 µM, MOI 0.025) | CC50 (VERO 76 cells) | protection from E11-induced CPE (Echovirus 11 [1]; 6.25 to 25 µM, post-infection, MOI 0.025, VERO 76 cells)
O=P(O)(O)OC1CC(n2cnc3c(Cl)ncnc32)C2C(c3c4ccccc4c(Br)c4ccccc34)=NOC12 (stereo not shown) [4a] | 90% and 83.9% | 75% and 79.8% | 8.15 ± 1.4 µM | 72% | 89% | 43% | 65% | 31% | 91% | significantly reduced | > 80% | moderate anti-SARS-CoV-2 RdRp activity | > 10 fold | markedly reduced CPE | – | – | –
O=P(O)(O)OC1CC(n2cnc3c(Cl)ncnc32)C2ON=C(c3c4ccccc4c(Br)c4ccccc34)C12 (stereo not shown) [4b] | 58% | 38% | 40.5 ± 1.8 µM | – | – | – | – | – | – | – | ~ 77% | moderate anti-SARS-CoV-2 RdRp activity | – | – | did not markedly affect viral RNA levels | 93.7 µM | –
CCC(CC)COC(=O)[C@H](C)N[P@](=O)(OC[C@H]1O[C@@](C#N)(c2ccc3c(N)ncnn23)[C@H](O)[C@@H]1O)Oc1ccccc1 [RDV, Remdesivir, reference compound] | – | – | – | – | – | – | – | – | – | – | – | – | – | – | – | – | robust and dose-dependent protection from E11-induced CPE
